In patent US20220347173A1, “METHODS OF TREATING LIVER FIBROSIS USING CALPAIN INHIBITORS” (Blade Therapeutics, Inc., priority 2018, published 2022):

Legend:
[1] = system: CCl4-induced liver fibrosis in male BALB/c mice; test: Carbon Tetrachloride (CCl4)-induced liver fibrosis model; type: in vivo
Method: This study is performed to evaluate the effects of calpain compounds disclosed herein on a Carbon Tetrachloride (CCl4)-induced liver fibrosis in male BALB/c mice. Liver fibrosis is induced in mice by the administration of CCl4 twice weekly for four weeks. CCl4 administered animals are treated with compounds disclosed herein in a therapeutic treatment mode on day 14 post initiation of CCl4 injection and continued until study termination. Study is terminated 96 hours following the last CCl4 administration, i.e., on day 32 post CCl4 administration. Compounds described herein show an improvement in fibrosis score and no effect on liver enzymes, liver weight or body weight compared to vehicle.
Carbon tetrachloride (CCl4) is purchased from Sigma (cat #319961). To induce liver fibrosis, mice are administered CCl4 (1:1, CCl4:mineral oil) via intraperitoneal (ip) injection at a dose volume of 1 ml/kg body weight. On every CCl4 administration day animals are weighed prior to administration of CCl4 and the dose volume is adjusted as per body weight of individual animal. Animals are administered CCl4: mineral oil twice weekly i.e. every Monday and Thursday for four weeks, 2 hours post morning treatment. The final CCl4 injection is received on day 28 post first CCl4 injection.
Animals are bled via sub-mandibular route on day-4 prior to study initiation, and on day 13, post CCl4 administration, a day before the therapeutic treatment began. Plasma is prepared and stored at −20° C. until it is analyzed. Upon study termination day 32 post CCl4 administration, animals are bled via cardiac puncture. Serum is prepared and stored at −20° C. until shipped to contract company for liver enzyme panel analysis. […]
The procedures described above were followed using Compound 405 as a test compound administered at 30 mg/kg BID or 100 mg/kg BID. Body weights were measured prior to every CCl4 administration. […] Average liver weight of 2.24+/−0.06 g was recorded in animals treated with vehicle compared to no CCl4 administered control mice 1.45+/−0.03 g (p<0.0001).

[2] = system: CDAHFD rat model of non-alcoholic steatohepatitis (NASH); test: Rat choline-deficient, amino acid-defined high fat diet (CDAHFD) model of NASH; type: in vivo, Male Wistar rats; settings: for mRNA expression of CTGF: MC BID 42.89±32.82; for mRNA expression of IL-6: MC BID 54.89±47.23; for mRNA expression of Colla1: MC BID 106.6±59.97; for SMA (Acta2) protein expression: MC QD 5.82±0.67
From the text: A rat choline-deficient, amino acid-defined high fat diet (CDAHFD) model of non-alcoholic steatohepatitis (NASH) reproduces key features of the human disease. This model was used to examine the anti-fibrotic effects of Compound 405 (shown in Table 1a) in the CDAHFD rat model.
Male Wistar rats (Charles River Laboratories) were randomly assigned to receive the following treatments: Group 1 (n=8) served as a healthy control and were fed normal chow for 12 weeks; Group 2 (n=8) served as a disease control and was fed a CDAHFD and received once daily (QD) oral gavage treatment with vehicle Methylcellulose (MC) beginning at week 5 post CDAHFD, Group 3 (n=8) served as a disease control and was fed a CDAHFD and received twice daily (BID) oral gavage treatment with vehicle Methylcellulose (MC) beginning at week 5 post CDAHFD, Group 4 (n=8) was fed a CDAHFD and received QD oral gavage treatment with Compound 405 (200 mg/kg) beginning at week 5 post CDAHFD, Group 5 (n=8) was fed a CDAHFD and received BID oral gavage treatment with Compound 405 (100 mg/kg) beginning at week 5 post CDAHFD, Group 6 (n=8) was fed a CDAHFD and received QD oral gavage treatment with Compound 405 (60 mg/kg) beginning at week 5 post CDAHFD, Group 7 (n=8) was fed a CDAHFD and received BID oral gavage treatment with Compound 405 (30 mg/kg) beginning at week 5 post CDAHFD. At the end of the study (12 weeks), liver tissue and serum was collected for further analysis. A part of the liver was used for histological analysis and the spare liver from each individual animal was snap frozen on liquid nitrogen and stored at −80° C. Serum was collected to measure ALT,

[3] = BID oral 100 mg/kg and 30 mg/kg, serum
[4] = QD oral 200 mg/kg and 60 mg/kg, serum

Liver Weight (as a percent of total weight) ([2]; 30 mg/kg BID, p<0.05): 6.6 ± 0.3% | Liver Weight (as a percent of total weight) ([2]; 100 mg/kg BID, p<0.05): 6.6 ± 0.8% | spleen weight (as a percent of total weight) ([2]; BID oral 100 mg/kg and 30 mg/kg): did not affect | albumin levels [2, 3]: did not alter | Total bilirubin ([2]; BID study, serum): did not change significantly | albumin levels [2, 4]: did not change | Total bilirubin ([2]; QD study, serum): did not change significantly
SMILES: Cc1nc(-c2ccccc2F)c(C(=O)NC(Cc2ccccc2)C(=O)C(N)=O)o1 (centres unmarked) [Compound 405]
Fibrosis score (Picrosirius Red-stained liver sections, polarized light) ([1]; CCl4-treated mice, oral 30 mg/kg BID or 100 mg/kg BID from day 14, day 32): statistically significant reduction | length and thickness of the collagen fibers (PSR-stained liver sections) ([1]; CCl4-treated mice, oral BID from day 14): decrease | fibrosis ([1]; dosed therapeutically at 100 mg/kg, twice a day): significantly reduced | mRNA expression of CTGF ([2]; 30 mg/kg BID, p<0.01): 3.55±1.35 | mRNA expression of IL-6 ([2]; 30 mg/kg BID, p<0.01): 2.80±1.35 | mRNA expression of SMA ([2]; 30 mg/kg BID, MC BID 73.65±37.51, p<0.01): 11.46±2.02 | mRNA expression of Colla1 ([2]; 30 mg/kg BID, p<0.01): 13.37±2.53 | fibrosis as measured by CPA ([2]; 60 mg/kg QD): did not significantly decrease | fibrosis as measured by hydroxyproline ([2]; 60 mg/kg QD): did not significantly decrease | SMA (Acta2) protein expression ([2]; 60 mg/kg QD, p<0.01): 2.40±1.16% | collagen deposition ([2]; 100 mg/kg BID): reduced | SMA (Acta2) protein expression in livers ([2]; 100 mg/kg BID, MC BID 7.08±1.36%, p<0.01): 2.01±1.14% | mRNA expression of CTGF ([2]; 100 mg/kg BID, p<0.05): 3.84±2.24 | mRNA expression of IL-6 ([2]; 100 mg/kg BID, p<0.01): 15.81±9.01 | mRNA expression of Colla1 ([2]; 100 mg/kg BID, p<0.01): 35.76±33.84 | hydroxyproline ([2]; 100 mg/kg BID, MC BID 706.9±173.5 nmol/L, p<0.05): 458.2 ± 146 nmol/L | SMA (Acta2) protein expression ([2]; 200 mg/kg QD, p<0.01): 1.7±0.58% | collagen proportional area (CPA) ([2]; 200 mg/kg QD, MC QD 11.28±3.50%, liver at 12 weeks): 6.08±1.69% | hydroxyproline ([2]; 200 mg/kg QD, MC QD 731.3±165.9 nmol/L, p<0.05): 495.1 ± 113.9 nmol/L | pro-fibrotic or inflammatory gene expression (mRNA) ([2]; 200 mg/kg or 60 mg/kg QD): did not significantly decrease | body weight ([2]; BID oral 100 mg/kg and 30 mg/kg, weeks 5-12): did not affect | level of blood transaminases (U/L) including ALT, AST, and ALP vs MC BID [2, 3]: did not change | expression of Calpain1 ([2]; BID treatment): did not change | expression of Calpain 2 ([2]; BID treatment): did not change | liver fat content (histological analysis of steatosis) ([2]; BID treatment): did not change | body weight relative to vehicle (methyl cellulose) control ([2]; QD oral 200 mg/kg and 60 mg/kg, weeks 5-12): did not alter | level of blood transaminases (ALT, AST, ALP) vs MC QD [2, 4]: did not alter | liver fat content (histological analysis of steatosis) ([2]; QD treatment): did not change
